We go through 3 molecules from PMC3091868, “A Novel Structural Framework for α1A/D-Adrenoceptor Selective Antagonists Identified Using Subtype Selective Pharmacophores” (PLoS ONE, 2011).

Molecules are shown by their SMILES. Like-named read-outs stand apart in the source and are kept apart here.

The target in assay [1] is T1, α1D-AR (Rattus norvegicus, UniProt P23944).
T1 construct: expressed in transfected cells; host or cells: COS-1
T1 sequence (P23944 1-561): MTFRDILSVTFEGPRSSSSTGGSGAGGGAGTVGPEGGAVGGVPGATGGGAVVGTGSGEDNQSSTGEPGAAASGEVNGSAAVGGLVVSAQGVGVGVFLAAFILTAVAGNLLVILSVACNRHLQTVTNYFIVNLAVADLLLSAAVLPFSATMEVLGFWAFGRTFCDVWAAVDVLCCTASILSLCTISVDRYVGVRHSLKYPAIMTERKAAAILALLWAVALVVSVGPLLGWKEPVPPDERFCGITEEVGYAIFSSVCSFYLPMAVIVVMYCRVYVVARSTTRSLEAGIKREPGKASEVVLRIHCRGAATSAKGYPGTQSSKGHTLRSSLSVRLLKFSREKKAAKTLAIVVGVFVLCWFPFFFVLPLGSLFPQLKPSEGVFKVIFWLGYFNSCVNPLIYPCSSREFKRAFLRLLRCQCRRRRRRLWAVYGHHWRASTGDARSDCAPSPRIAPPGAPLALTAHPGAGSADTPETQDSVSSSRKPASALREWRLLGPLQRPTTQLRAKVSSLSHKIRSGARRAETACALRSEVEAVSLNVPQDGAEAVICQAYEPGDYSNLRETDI
Kind of assay: [3H]Prazosin competition/saturation binding on COS-1 membranes expressing α1D-AR. More on the design: species or system rodent. The conditions noted are these: [3H]Prazosin 200 pM. The method, then: (§1) COS-1 cells (American Type Culture Collection, Manassas, VA) were cultured in Dulbecco's modified Eagle's medium (DMEM) supplemented with 10% (v/v) heat inactivated fetal bovine serum (FBS), 100 µg ml^−1 penicillin and 100 µg ml^−1 streptomycin. Cells were maintained and passaged upon reaching confluence by standard cell culture techniques. pMT4 plasmids containing rodent α1-AR (a kind gift from Prof R Graham, Victor Chang Cardiac Research Institute, Australia) were used to transfect cells. Transient expression in COS-1 cells was accomplished using two techniques; the diethylaminoethane-dextran (DEAE-dextran) and Lipofectamine 2000 (Invitrogen, Carlsbad, CA, USA) methods. Briefly, the DEAE-dextran method involved washing of cells with phosphate buffered saline (PBS), followed by the addition of the DNA mixture (12–25 µg/4×10^6 cells) in DEAE-dextran (10 mg ml^−1) to cells at 60–80% confluency. Following a 3 h incubation, a PBS wash with 10% DMSO was used to shock the cells. Cells were harvested 72 h post transfection. For the Lipofectamine 2000 method, cells were incubated for 12 h with Opti-MEM (GIBCO BRL, Gaithersburg, MD, USA) containing Lipofectamine 2000.
(§2) Membranes were prepared as described previously. Briefly, COS-1 cells were transiently transfected using the DEAE-dextran method. […] Protein concentration was determined using Bradford reagent (Sigma, St Louis, MO, USA).
(§3) For all binding experiments, the reaction mixture was incubated for 1 h at room temperature, stopped by the addition of 4°C PBS and filtered with a Brandel cell harvester (Gaithersburg, MD, USA) on GF/C filters. Nonspecific binding was defined as binding in the presence of 100 µM phentolamine hydrochloride.
(§4) Nonlinear regression analysis of saturation and competition binding assay data was performed using the […] curve fitting program GraphPad Prism (San Diego, CA, USA). […] The competitive binding data for each ligand was tested for both one and two -site binding.

Assay [2] deals with T2, α1A-AR (Rattus norvegicus, UniProt P43140).
T2 construct: expressed in transfected cells; host or cells: COS-1
T2 sequence (P43140 1-466): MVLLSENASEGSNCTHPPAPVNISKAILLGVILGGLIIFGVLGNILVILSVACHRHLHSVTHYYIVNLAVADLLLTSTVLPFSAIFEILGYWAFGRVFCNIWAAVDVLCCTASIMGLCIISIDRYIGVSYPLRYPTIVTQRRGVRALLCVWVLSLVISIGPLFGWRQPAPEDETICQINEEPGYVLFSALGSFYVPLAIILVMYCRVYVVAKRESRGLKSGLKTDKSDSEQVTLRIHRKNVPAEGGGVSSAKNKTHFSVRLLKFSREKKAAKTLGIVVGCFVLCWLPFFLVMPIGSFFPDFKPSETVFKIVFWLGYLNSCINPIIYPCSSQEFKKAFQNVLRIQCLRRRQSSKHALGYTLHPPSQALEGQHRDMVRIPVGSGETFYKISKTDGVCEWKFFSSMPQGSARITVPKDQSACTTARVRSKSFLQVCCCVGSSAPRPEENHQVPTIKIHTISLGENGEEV
The assay is described as follows: [3H]Prazosin competition/saturation binding on COS-1 membranes expressing α1A-AR. Also noted: species or system rodent. The note with it: for Ki: [3H]Prazosin 200 pM, COS-1 membranes. How it is done: as §1, §2, §3, §4

The mark [3] stands for this setting: antilog of mean pKi, Cheng-Prusoff, read-out: Ki α1D-AR.
Where [4] appears, read: pKi = -Log Ki, read-out: pKi α1D-AR (converted).
Setting [5] is: antilog of mean pKi, Cheng-Prusoff, read-out: Ki α1A-AR.
The mark [6] stands for this setting: pKi = -Log Ki, read-out: pKi α1A-AR (converted).

On to `Cc1ccc(C)c(N2CCN(CC(O)COC(C)(C)C)CC2)c1` (stereo not shown) [Compound 1], for which the Ki is below 2000 nM in assay [1] (Ki α1D-AR, antilog of mean pKi, Cheng-Prusoff); 830 nM in assay [1] (setting [3]); 794 nM in assay [1] (setting [4]); below 2000 nM in assay [2] (Ki α1A-AR, antilog of mean pKi, Cheng-Prusoff); 1170 nM in assay [2] (setting [5]).
On to `CCCCCCCCN(CCCCCCCC)CC(O)c1ccccc1Cl` (stereo not shown) [Compound 8], for which the Ki in assay [1] (setting [3]) is 48700 nM; in assay [2] (setting [5]), 45900 nM; in assay [2] (setting [6]) it was 41700 nM.
On to `COc1cc2c(cc1OC)C1CC(C)=C(c3ccccc3)CN1CC2` (stereo not shown) [Compound 11], for which the Ki is 1600 nM in assay [1] (setting [3]), 1510 nM in assay [1] (setting [4]), 2000 nM in assay [2] (setting [5]) and 1780 nM in assay [2] (setting [6]). Further, the “selectivity for α1A-AR over α1B-AR” value in assay [2] (from binding affinities) is listed as 7 fold.
